From PMC7472048 (Viruses, 2020)
pEC50: −log10 of the molar value.

Legend:
influenza A virus = conditions: mouse, in vivo; cited from earlier work
[1] = test system: IFNB and ISG mRNA expression; format: cell-based, Homo sapiens
rLASV = experiment: microbe, parasite or virus in culture; format: cell-based, Lassa virus (LASV); conditions: Mammarenavirus lassaense, A549, read-out: rLASV (A549 cell) EC50
in vitro [2] = conditions: human
rLASV/GFP = format: cell-based, Lassa virus (LASV)
r3Can/GFP = format: cell-based, Junín virus (JUNV)
in vitro [3] = conditions: African green monkey (Chlorocebus aethiops)
rLCMV/ZsG = experiment: microbe, parasite or virus in culture; format: cell-based, lymphocytic choriomeningitis virus (LCMV); conditions: Mammarenavirus choriomeningitidis, A549, 48 h, read-out: rLCMV (A549 cell) EC50
r3Can = experiment: organism not typed; format: cell-based, Junín virus (JUNV) Candid#1 strain; conditions: Vero, read-out: r3Can (Vero cell) EC50
LASV Z-mediated budding = format: cell-based, Lassa virus (LASV)
LCMV CL-13 = test system: LCMV CL-13; set-up: species or system C57BL/6 mice; conditions: mouse, in vivo, 150 mg/kg/day
rCL-13/ZsG = format: cell-based, lymphocytic choriomeningitis virus (LCMV)

Compound: CCOc1ccc(-c2cc(C(=O)O)c3cc(Br)ccc3n2)cc1 [FA-613]
- survival (influenza A virus): increased survival

Compound: Cc1c(-c2ccc(-c3ccccc3F)cc2)nc2ccc(F)cc2c1C(=O)O [Brequinar]
- mRNA levels of IFNB and ISGs in LCMV-infected cells [1]: significantly decreased
- ISG15 and IFIT1 expression in non-infected A549 cells ([1]; 5 µM, 48 h): moderately upregulated
- expression of IFNB in non-infected A549 cells ([1]; 5 µM, 48 h): Neither Cmp 1 nor brequinar treatment significantly affected
- pEC50 (rLASV): 7.20
- CC50 (in vitro [2]): 79 µM
- rLASV/GFP propagation (rLASV/GFP): strongly inhibited
- r3Can/GFP propagation (r3Can/GFP): strongly inhibited
- CC50 (in vitro [3]): 47.2 µM
- pEC50 (rLCMV/ZsG): 7.39
- pEC50 (r3Can): 7.40

Compound: COc1cccc(-c2ccc(NC(=O)C3=C(C(=O)O)CCC3)c(F)c2)c1 [Cmp 4, vidofludimus calcium]
- Z budding efficiency, ratio ZVLP:(ZVLP+ZWCL) (LASV Z-mediated budding): very modest, but statistically significant, effect
- pEC50 (rLASV): 5.52
- body weight loss and recovery versus vehicle control (LCMV CL-13): less body weight loss and faster recovery
- viral load (serum virus titers) (LCMV CL-13): did not cause a significant reduction
- CC50 (in vitro [2]): 54.4 µM
- CC50 (in vitro [3]): 5.92 µM
- pEC50 (rLCMV/ZsG): 5.89
- Cmp 4-induced antiviral effect with exogenous uridine (rCL-13/ZsG): reverted
- pEC50 (r3Can): 5.77
